Patent US20250345383A1, “INTRANASAL ADMINISTRATION OF POLYSULFIDE” (The General Hospital Corporation, priority 2022, published 2025)

What was measured:
[1] = test system: sulfane sulfur in lumbar spinal cord; assay: Relative sulfane sulfur levels in lumbar spinal cords after SCI (SSip-1); format: in vivo, mouse; settings: 48 hours after SCI; intranasal GSSSG; sham set to 1.00±0.30, vehicle alone 0.56±0.13; mean ± SD
Method: Lumbar spinal cords were harvested 48 hours after surgery and snap-frozen in liquid nitrogen. Spinal cords were subsequently homogenized in Hanks' balanced salt solution (HBSS; Thermo Fisher Scientific, Waltham, MA, USA) containing SSip-1 (5 μM), incubated at room temperature in the dark for 20 minutes, and then subjected to centrifugation. SSip-1 was synthesized and provided by the Hanaoka laboratory^38. The fluorescence intensities of supernatants were measured using a microplate reader (SpectraMax M5; Molecular Devices, San Jose, CA, USA) at the wavelength of λex/λem=491 nm/525 nm. The fluorescence intensities were normalized to the weights of the spinal cord.

[2] = test system: CCL2, CXCL1, IL-1β, IL-6, TNF-α, Bcl-2, Bcl-XL, SQOR and other sulfide-metabolizing enzymes mRNA; assay: mRNA levels in lumbar spinal cords 48 hours after surgery (quantitative real-time PCR); format: in vivo, mouse; settings: intranasal GSSSG after SCI
Method: Messenger RNA (mRNA) levels were measured as previously described^15 using lumbar spinal cords at 48 hours after surgery. The mRNA levels of C-C motif chemokine 2 (CCL2), C-X-C motif chemokine ligand 1 (CXCL1), interleukin (IL)-1β, IL-6, tumor necrosis factor (TNF)-α, B-cell lymphoma 2 (Bcl-2), B-cell lymphoma-extra large (Bcl-XL), cystathionine beta synthase, cystathionine gamma lyase, 3-mercaptopyruvate sulfurtransferase, sulfide:quinone oxidoreductase (SQOR), ethylmaronic encephalopathy 1, thiosulfate sulfurtransferase, sulfite oxidase, cysteinyl-tRNA synthetase 1, and cysteinyl-tRNA synthetase 2 were standardized to the level of 18S ribosomal RNA using quantitative real-time polymerase chain reaction (7500 Fast Real-Time PCR System, Thermo Fisher Scientific, Waltham, MA, USA).

primary cortical neurons = assay: Cell viability after oxygen and glucose deprivation/reoxygenation (OGD/R), primary cortical neurons; format: cell-based, mouse
Method: Primary cortical neurons were isolated from the cerebral cortices of C57BL/6J mice of both sexes at embryonic day 15, as previously described 39. Primary cortical neurons were maintained at 37° C. in a humidified tissue culture chamber with 5% CO2 and cells were used on day 11 after harvest. […] After reoxygenation, cell viability and cell injury were assessed using crystal violet and lactate dehydrogenase (LDH) assays, as previously described^39.

[3] = test system: ventral horn of lumbar spinal cord; assay: Histology of lumbar spinal cord 48 hours after SCI (Nissl, Iba-1, cleaved caspase-3); format: in vivo, mouse
Method: The lumbar enlargement of the spinal cord was removed 48 hours after surgery and sectioned to […] thickness using a cryotome (CM1850UV; Leica Biosystems, Heidelberger, Germany). Nissl staining was conducted using the Nissl stain kit (VitroVivo Biotech, Rockville, MD, USA) according to the protocol recommended by the manufacturer. Immunohistochemical staining for ionized calcium-binding adaptor molecule 1 (Iba-1) and cleaved caspase-3 was performed as previously described^6,15. The stained sections were examined using an epifluorescence microscope (Nikon Eclipse 80i; Nikon Instruments, Inc., Melville, NY, USA).
The number of stained cells was counted in one field (0.26 mm^2) under high magnification (200×) in 3 different sections of spinal cord from each mouse by an investigator who was blinded to the identity of the samples. The average number of stained cells was calculated for each mouse. For quantitative analysis of Iba-1 staining, the Iba-1-positive area per one field (0.26 mm^2) under high magnification (200×) in 3 different ventral horn sections for each mouse was calculated using the ImageJ image-processing program (National Institutes of Health, Bethesda, MD, USA). The mean area of Iba-1 staining in the spinal cords of mice in the sham procedure group was set to 1 and the relative amount of Iba-1 staining was determined for each experimental group of mice. Each group included 5 mice.

N[C@@H](CCC(=O)N[C@@H](CSSSC[C@H](NC(=O)CC[C@H](N)C(=O)O)C(=O)NCC(=O)O)C(=O)NCC(=O)O)C(=O)O [GSSSG, glutathione trisulfide]
relative sulfane sulfur levels in lumbar spinal cord [1]: 1.37±0.50
mRNA encoding SQOR in lumbar spinal cord [2]: decreased the level of mRNA encoding SQOR
mRNA encoding pro-inflammatory cytokines in lumbar spinal cord [2]: attenuated the upregulation
mRNA levels encoding other enzymes that synthesize or metabolize sulfides or persulfides [2]: no effect
mRNA levels of anti-apoptotic genes Bcl-2 and Bcl-XL, vehicle alone vs GSSSG [2]: no significant difference
cell survival after OGD/R (primary cortical neurons; GSSSG 100 μM): failed to improve cell survival
release of LDH after OGD/R (primary cortical neurons; GSSSG at 30 μM or 60 μM, vs vehicle-only treated cells): decreased release of LDH
cell viability after OGD/R, crystal violet assay (GSSSG, GSH, GSSG comparison) (primary cortical neurons; GSSSG at 30 μM, GSH at 60 μM, GSSG at 30 μM, vs vehicle-only treated cells): improved cell viability
cell viability after OGD/R, crystal violet assay (primary cortical neurons; GSSSG at 30 μM, vs vehicle-only treated cells): increased cell viability
number of cleaved caspase-3-positive neurons in lumbar spinal cord ([3]; intranasal GSSSG): prevented the SCI-induced increase
number of viable neurons (Nissl stain) in ventral horns of lumbar spinal cord ([3]; intranasal GSSSG at 0, 8, 23, 32 hours, vs vehicle alone): significant increase in the number of viable neurons
Iba-1-positive staining (microglial activation) in lumbar spinal cord ([3]; intranasal GSSSG, vs vehicle alone): significant reduction in staining for Iba-1
